Among the test systems are Enterococcus faecalis VR; Enterococcus faecalis; Enterococcus faecium VR; Enterococcus faecium; Staphylococcus aureus MR; Citrobacter sp.; Enterobacter cloacae; Klebsiella pneumoniae; Staphylococcus aureus; Streptococcus pneumoniae; Candida albicans CA2761; Escherichia coli EC183; Escherichia coli UB1005.
What all share (assay): ≥ marks a high value that may be exact or a test limit, other limits are often not marked, values filed in µg/mL are converted to µM
Experiment [1] deals with Bacillus subtilis KCTC 3068.
The test system of experiment [2] is Escherichia coli KCTC 1682.
Experiment [3] concerns Pseudomonas aeruginosa KCTC 1637.
In experiment [4] the test system is Salmonella typhimurium KCTC 1926.
Experiment [5] relates to Staphylococcus aureus KCTC 1621.
Experiment [6] deals with Staphylococcus epidermidis KCTC 1917.
Experiment [7] has as its system Acinetobacter baumannii ATCC 15308.
For experiment [8], the system named is Escherichia coli ATCC 25922.
The subject of experiment [9] is Pseudomonas aeruginosa ATCC 15442.
Experiment [10] deals with Staphylococcus aureus ATCC 25923.
Experiment [11] relates to Aspergillus niger ATCC 16404.
Experiment [12] relates to Candida albicans ATCC 10231.
The test system of experiment [13] is Candida glabrata ATCC 15126.
Experiment [14] has as its system Enterococcus faecalis PCM 2673.
Experiment [15] deals with Escherichia coli ATCC 23506.
The test system of experiment [16] is Klebsiella pneumoniae ATCC 700603.
Experiment [17] relates to Pseudomonas aeruginosa ATCC 9027.
Experiment [18] relates to Staphylococcus aureus ATCC 9144.
In experiment [19] the test system is Streptococcus pneumoniae ATCC 49619.
Experiment [20] concerns Streptococcus gordonii ATCC 10558.
Experiment [21] concerns Streptococcus oralis ATCC 9811.
The test system of experiment [22] is Streptococcus sanguinis ATCC 10556.
Experiment [23] relates to Bacillus subtilis CMCC 63501.
The test system of experiment [24] is Candida albicans CGMCC 2.2086.
For experiment [25], the system named is Candida krusei CGMCC 2.1857.
Experiment [26] deals with Candida tropicalis CGMCC 2.1975.
In experiment [27] the test system is Salmonella enterica subsp. enterica serovar Typhimurium C77-31.
Experiment [28] relates to Staphylococcus aureus ATCC 29213.
Experiment [29] concerns Staphylococcus epidermidis ATCC 12228.

Converted amounts (≈) assume the structure as drawn.

For the compound `CC(C)C[C@H](NC(=O)[C@H](CC(C)C)NC(=O)[C@H](CS)NC(=O)[C@H](Cc1cnc[nH]1)NC(=O)[C@H](C)NC(=O)[C@H](C)N)C(=O)N[C@@H](CCCN=C(N)N)C(=O)NCC(=O)N[C@@H](CC(N)=O)C(=O)N[C@@H](CCCN=C(N)N)C(N)=O` [AAHCLLRGNR], the MIC was found to be 30 µM in [1]; 30 µM in the experiment with Enterococcus faecalis VR; 30 µM in the experiment on Enterococcus faecalis; 30 µM against Enterococcus faecium VR; 30 µM in the experiment on Enterococcus faecium; 15 µM in experiment [2]. The MIC was 30 µM in experiment [3]; 30 µM in [4]; 30 µM in experiment [5]; 30 µM in the experiment on Staphylococcus aureus MR; 15 µM in [6].

As for `CC[C@H](C)[C@H](NC(=O)[C@H](CC(C)C)NC(=O)CNC(=O)CNC(=O)[C@H](CC(C)C)NC(=O)[C@@H](N)Cc1ccccc1)C(=O)N[C@@H](CCCCN)C(=O)N[C@@H](Cc1c[nH]c2ccccc12)C(=O)N[C@@H](Cc1c[nH]c2ccccc12)C(=O)N1CCC[C@H]1C(=O)N[C@@H](Cc1c[nH]c2ccccc12)C(=O)N[C@@H](CCCN=C(N)N)C(=O)N[C@@H](CCCN=C(N)N)C(N)=O` [FLGGLIKWWPWRR], the MIC in experiment [7] is 18.2 µM (≈ 31.2 µg/mL); against Citrobacter sp. it was at least 146 µM; against Enterobacter cloacae, at least 146 µM; in experiment [8] it was 4.55 µM (≈ 7.81 µg/mL); against Klebsiella pneumoniae it was above 146 µM; in experiment [9], 18.2 µM (≈ 31.2 µg/mL). Besides, the MIC (in [10]; against Staphylococcus aureus; with Streptococcus pneumoniae) was 4.55 µM (≈ 7.81 µg/mL) in each case.

Consider `CC[C@H](C)[C@H](NC(=O)CNC(=O)[C@H](CCCCN)NC(=O)[C@H](Cc1ccccc1)NC(=O)[C@H](CC(C)C)NC(=O)[C@H](CCCCN)NC(=O)[C@H](CCCCN)NC(=O)[C@H](C)NC(=O)[C@H](CCCCN)NC(=O)[C@H](CCCCN)NC(=O)[C@H](Cc1ccccc1)NC(=O)CNC(=O)[C@H](CCCCN)NC(=O)[C@H](C)NC(=O)[C@H](Cc1ccccc1)NC(=O)[C@@H](NC(=O)[C@H](CCCCN)NC(=O)[C@@H](NC(=O)[C@H](CC(C)C)NC(=O)[C@H](CCCCN)NC(=O)[C@@H](N)CCCCN)[C@@H](C)CC)C(C)C)C(=O)NCC(N)=O` [KKLIKVFAKGFKKAKKLFKGIG], for which the MIC in [11] was 12.9 µM (≈ 32 µg/mL); in experiment [12], 103 µM (≈ 256 µg/mL); in experiment [13], at least 51.7 µM; in [14] it was 25.8 µM (≈ 64 µg/mL); in experiment [15], 0.807 µM (≈ 2 µg/mL); in experiment [8], 3.23 µM (≈ 8 µg/mL). The minimal inhibitory concentration (MIC) is 0.101 µM (≈ 0.25 µg/mL) in [16]; 0.807 µM (≈ 2 µg/mL) in [17]; 51.7 µM (≈ 128 µg/mL) in experiment [10]; 25.8 µM (≈ 64 µg/mL) in experiment [18]; 1.61 µM (≈ 4 µg/mL) in experiment [19].

`CC[C@H](C)[C@H](NC(=O)CNC(=O)CNC(=O)CNC(=O)CNC(=O)[C@H](Cc1c[nH]c2ccccc12)NC(=O)[C@@H](NC(=O)[C@H](Cc1cnc[nH]1)NC(=O)[C@H](CCSC)NC(=O)CNC(=O)[C@@H]1CCCN1C(=O)[C@H](C)NC(=O)[C@H](CC(=O)O)NC(=O)[C@@H]1CCCN1C(=O)[C@H](CC(C)C)NC(=O)[C@H](CCCCN)NC(=O)[C@@H](N)CCCN=C(N)N)[C@@H](C)O)C(=O)N[C@@H](CC(N)=O)C(=O)N[C@H](C(=O)N[C@@H](CC(C)C)C(=O)N[C@@H](CCC(N)=O)C(=O)N[C@@H](CCCCN)C(=O)N[C@@H](Cc1ccc(O)cc1)C(=O)N[C@@H](Cc1ccc(O)cc1)C(=O)N[C@@H](CS)C(=O)N[C@@H](CCCN=C(N)N)C(=O)N[C@H](C(=O)N[C@@H](CCCN=C(N)N)C(=O)NCC(=O)O)C(C)C)[C@@H](C)O` [RKLPDAPGMHTWGGGGINTLQKYYCRVRG]: the figures for the minimum inhibitory concentration (MIC) in [20], in experiment [21] and in [22] were at least 186 µM, at least 155 µM and at least 186 µM, respectively.

Turning to `CC[C@H](C)[C@H](NC(=O)[C@H](Cc1c[nH]c2ccccc12)NC(=O)[C@H](CCCCN)NC(=O)[C@H](CC(C)C)NC(=O)[C@@H](NC(=O)[C@H](CCCCN)NC(=O)CNC(=O)[C@@H](NC(=O)[C@H](CCCCN)NC(=O)[C@H](CCCCN)NC(=O)[C@H](CC(C)C)NC(=O)[C@H](CCCN=C(N)N)NC(=O)[C@H](CCCCN)NC(=O)[C@H](CCCN=C(N)N)NC(=O)[C@@H](N)[C@@H](C)O)[C@@H](C)CC)C(C)C)C(N)=O` [TRKRLKKIGKVLKWI], the MIC in experiment [23] is 2 µM (≈ 3.73 µg/mL); in the experiment with Candida albicans CA2761, at least 128 µM; in experiment [24] it was at least 64 µM; in experiment [25], 8 µM (≈ 14.9 µg/mL); in experiment [26], 2 µM (≈ 3.73 µg/mL); in experiment [8] it was 8 µM (≈ 14.9 µg/mL). Further, the MIC with Escherichia coli EC183 amounted to 2 µM (≈ 3.73 µg/mL); in the experiment on Escherichia coli UB1005, 4 µM (≈ 7.47 µg/mL); in experiment [27] it was 8 µM (≈ 14.9 µg/mL); in experiment [10] it was 32 µM (≈ 59.7 µg/mL); in experiment [28] it was 32 µM (≈ 59.7 µg/mL); in experiment [29], 32 µM (≈ 59.7 µg/mL).

For the origin of these results see DBAASP.
